Experimental data reported in ChEMBL document CHEMBL4334548, “Discovery of Isoxazole Amides as Potent and Selective SMYD3 Inhibitors” (ACS Med Chem Lett, 2020).
Converted amounts (≈) assume the structure as drawn.

Columns and labels:
[1] = Solubility of compound by CLND method; type: physicochemical
[2] = Permeability of compound; type: ADME; settings: not told; read-out: permeability
[3] = Clearance in Sprague-Dawley rat at 0.5 mg/kg, iv or 2 mg/kg, po; type: ADME, organism-based; settings: in vivo
[4] = Volume of distribution in Sprague-Dawley rat at 0.5 mg/kg, iv or 2 mg/kg, po; type: ADME, organism-based; settings: in vivo
[5] = Half life in Sprague-Dawley rat at 0.5 mg/kg, iv or 2 mg/kg, po; type: ADME, organism-based; settings: in vivo
[6] = AUC in Sprague-Dawley rat at 2 mg/kg, po; type: ADME, organism-based; settings: Sprague-Dawley, in vivo, read-out: AUC
[7] = Oral bioavailability in Sprague-Dawley rat at 2 mg/kg; type: ADME, organism-based; settings: Sprague-Dawley, in vivo
[8] = Clearance in Sprague-Dawley rat at 1 mg/kg, iv or 2 mg/kg, po; type: ADME, organism-based; settings: in vivo
[9] = Volume of distribution in Sprague-Dawley rat at 1 mg/kg, iv or 2 mg/kg, po; type: ADME, organism-based; settings: in vivo
[10] = Half life in Sprague-Dawley rat at 1 mg/kg, iv or 2 mg/kg, po; type: ADME, organism-based; settings: in vivo

## Cc1cccc(CN[C@H]2CC[C@H](CS(=O)(=O)N3CCC(NC(=O)c4cc(C5CC5)on4)CC3)CC2)c1
[1]
  solubility kinetic: 21 µM (≈ 10.8 µg/mL)
[2]
  Papp: 17 ×10⁻⁶ cm/s

## O=C(NC1CCN(S(=O)(=O)C[C@H]2CC[C@H](NCc3ccccc3Cl)CC2)CC1)c1cc(C2CC2)on1
[1]
  solubility kinetic: 6 µM (≈ 3.21 µg/mL)
[2]
  Papp: 20 ×10⁻⁶ cm/s

## O=C(NC1CCN(S(=O)(=O)C[C@H]2CC[C@H](NCc3ccc(F)cc3)CC2)CC1)c1cc(C2CC2)on1
[1]
  solubility kinetic: 3 µM (≈ 1.56 µg/mL)

## O=C(NC1CCN(S(=O)(=O)C[C@H]2CC[C@H](NCc3cccc(Cl)c3)CC2)CC1)c1cc(C2CC2)on1
[1]
  solubility kinetic: 4 µM (≈ 2.14 µg/mL)
[2]
  Papp: 18 ×10⁻⁶ cm/s

## NCc1ccc(S(=O)(=O)N2CCC(NC(=O)c3cc(C4CC4)on3)CC2)cc1
[1]
  solubility kinetic: 295 µM (≈ 119 µg/mL)
[2]
  Papp: 5.2 ×10⁻⁶ cm/s
[3]
  clearance: 311 mL/min/kg
[4]
  Vd: 2.3 L/kg
[5]
  half-life: 0.2 h

## O=C(NC1CCN(S(=O)(=O)c2ccc(CN3CCC3)cc2)CC1)c1cc(C2CC2)on1
[1]
  solubility kinetic: 302 µM (≈ 134 µg/mL)
[2]
  Papp: 16 ×10⁻⁶ cm/s

## CN(C)[C@H]1CC[C@H](CS(=O)(=O)N2CCC(NC(=O)c3cc(C4CC4)on3)CC2)CC1
[1]
  solubility kinetic: 126 µM (≈ 55.3 µg/mL)
[2]
  Papp: < 1 ×10⁻⁶ cm/s

## CN1CCC(S(=O)(=O)N2CCC(NC(=O)c3cc(C4CC4)on3)CC2)CC1
[1]
  solubility kinetic: 474 µM (≈ 188 µg/mL)
[2]
  Papp: 5.6 ×10⁻⁶ cm/s

## CN(C)Cc1ccc(S(=O)(=O)N2CCC(NC(=O)c3cc(C4CC4)on3)CC2)cc1
[1]
  solubility kinetic: 130 µM (≈ 56.2 µg/mL)
[2]
  Papp: 20 ×10⁻⁶ cm/s

## O=C(NC1CCN(S(=O)(=O)C[C@H]2CC[C@H](NCCCC(F)(F)F)CC2)CC1)c1cc(C2CC2)on1
[1]
  solubility kinetic: 9 µM (≈ 4.69 µg/mL)
[2]
  Papp: 14 ×10⁻⁶ cm/s
[3]
  clearance: 20 mL/min/kg
[4]
  Vd: 18.9 L/kg
[5]
  half-life: 12.8 h
[6]
  AUC: 676 ng·h/mL
[7]
  bioavailability: 79%

## O=C(NC1CCN(S(=O)(=O)C2CCNC2)CC1)c1cc(C2CC2)on1 (configuration not stated)
[1]
  solubility kinetic: 406 µM (≈ 150 µg/mL)
[2]
  Papp: 2.4 ×10⁻⁶ cm/s

## CCN[C@H]1CC[C@H](CS(=O)(=O)N2CCC(NC(=O)c3cc(C4CC4)on3)CC2)CC1
[1]
  solubility kinetic: 295 µM (≈ 129 µg/mL)
[2]
  Papp: < 0.3 ×10⁻⁶ cm/s

## O=C(NC1CCN(S(=O)(=O)C[C@H]2CC[C@H](NCc3ccncc3)CC2)CC1)c1cc(C2CC2)on1
[1]
  solubility kinetic: 26 µM (≈ 13 µg/mL)
[2]
  Papp: 4.5 ×10⁻⁶ cm/s

## CC(C)(C)CCN[C@H]1CC[C@H](CS(=O)(=O)N2CCC(NC(=O)c3cc(C4CC4)on3)CC2)CC1
[1]
  solubility kinetic: 10 µM (≈ 4.95 µg/mL)
[2]
  Papp: 18 ×10⁻⁶ cm/s

## O=C(NC1CCN(S(=O)(=O)c2ccc(CN3CCCC3)cc2)CC1)c1cc(C2CC2)on1
[1]
  solubility kinetic: 122 µM (≈ 55.9 µg/mL)
[2]
  Papp: 13 ×10⁻⁶ cm/s
[3]
  clearance: 68 mL/min/kg
[4]
  Vd: 6.7 L/kg
[5]
  half-life: 1.7 h
[6]
  AUC: 295 ng·h/mL

## O=C(NC1CCN(S(=O)(=O)C[C@H]2CC[C@H](NCc3ccc(F)cn3)CC2)CC1)c1cc(C2CC2)on1
[1]
  solubility kinetic: 141 µM (≈ 73.3 µg/mL)
[2]
  Papp: 19 ×10⁻⁶ cm/s
[6]
  AUC: 578 ng·h/mL
[7]
  bioavailability: 59%
[8]
  clearance: 17 mL/min/kg
[9]
  Vd: 12 L/kg
[10]
  half-life: 10.8 h

## O=C(NC1CCN(S(=O)(=O)C[C@H]2CC[C@H](NCc3ccc(Cl)cn3)CC2)CC1)c1cc(C2CC2)on1
[1]
  solubility kinetic: 14 µM (≈ 7.51 µg/mL)
[2]
  Papp: 22 ×10⁻⁶ cm/s

## NCCS(=O)(=O)N1CCC(NC(=O)c2cc(C3CC3)on2)CC1
[1]
  solubility kinetic: 375 µM (≈ 128 µg/mL)
[2]
  Papp: < 1 ×10⁻⁶ cm/s

## CCCN[C@H]1CC[C@H](CS(=O)(=O)N2CCC(NC(=O)c3cc(C4CC4)on3)CC2)CC1
[1]
  solubility kinetic: 143 µM (≈ 64.7 µg/mL)
[2]
  Papp: 3.5 ×10⁻⁶ cm/s

## CCN1CCC(S(=O)(=O)N2CCC(NC(=O)c3cc(C4CC4)on3)CC2)CC1
[1]
  solubility kinetic: 502 µM (≈ 206 µg/mL)
[2]
  Papp: 5.2 ×10⁻⁶ cm/s

## O=C(NC1CCN(S(=O)(=O)C2CCNCC2)CC1)c1cc(C2CC2)on1
[1]
  solubility kinetic: 515 µM (≈ 197 µg/mL)
[2]
  Papp: 0.69 ×10⁻⁶ cm/s
[3]
  clearance: 37 mL/min/kg
[4]
  Vd: 4.5 L/kg
[5]
  half-life: 2.7 h
[6]
  AUC: 123 ng·h/mL
[7]
  bioavailability: 27%

## O=C(NC1CCN(S(=O)(=O)C[C@H]2CC[C@H](NCc3cccc(F)c3)CC2)CC1)c1cc(C2CC2)on1
[1]
  solubility kinetic: 277 µM (≈ 144 µg/mL)
[2]
  Papp: 20 ×10⁻⁶ cm/s

## CCN(CCCC(F)(F)F)[C@H]1CC[C@H](CS(=O)(=O)N2CCC(NC(=O)c3cc(C4CC4)on3)CC2)CC1
[1]
  solubility kinetic: 53 µM (≈ 29.1 µg/mL)
[2]
  Papp: 41 ×10⁻⁶ cm/s

## O=C(NC1CCN(S(=O)(=O)[C@H]2CC[C@H](NCCCC(F)(F)F)CC2)CC1)c1cc(C2CC2)on1
[6]
  AUC: 967 ng·h/mL
[7]
  bioavailability: 86%
[8]
  clearance: 20 mL/min/kg
[9]
  Vd: 12.5 L/kg
[10]
  half-life: 8.6 h
